“And” between values parts separate entries of the source, which are not always exact repeats. Equal entries are not always repeated.

Experiment [1] deals with T1, Inhibitor of nuclear factor kappa-B kinase subunit beta (Homo sapiens) (UniProt O14920).
T1 sequence (whole entry): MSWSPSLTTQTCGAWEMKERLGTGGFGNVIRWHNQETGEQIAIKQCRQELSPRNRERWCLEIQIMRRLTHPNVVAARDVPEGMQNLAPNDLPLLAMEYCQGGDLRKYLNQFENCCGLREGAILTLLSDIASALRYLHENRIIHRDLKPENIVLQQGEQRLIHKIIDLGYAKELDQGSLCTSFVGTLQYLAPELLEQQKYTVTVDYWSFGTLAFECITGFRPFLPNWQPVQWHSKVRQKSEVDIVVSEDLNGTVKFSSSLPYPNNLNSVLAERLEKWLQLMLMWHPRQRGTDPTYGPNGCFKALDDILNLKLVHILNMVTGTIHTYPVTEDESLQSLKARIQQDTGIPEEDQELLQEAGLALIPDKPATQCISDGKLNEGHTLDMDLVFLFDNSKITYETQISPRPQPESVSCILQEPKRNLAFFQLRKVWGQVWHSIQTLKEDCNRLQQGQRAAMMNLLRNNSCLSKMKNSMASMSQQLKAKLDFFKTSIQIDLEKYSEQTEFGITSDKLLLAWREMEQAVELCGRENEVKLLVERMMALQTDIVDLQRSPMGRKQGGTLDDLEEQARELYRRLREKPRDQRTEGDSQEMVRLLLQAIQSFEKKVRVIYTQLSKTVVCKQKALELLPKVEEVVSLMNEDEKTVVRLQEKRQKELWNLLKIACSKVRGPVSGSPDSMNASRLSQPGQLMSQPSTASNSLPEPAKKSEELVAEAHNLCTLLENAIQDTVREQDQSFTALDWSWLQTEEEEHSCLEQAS
Particulars: at 1 µM.

For experiment [2], the target named is T2, Tyrosine-protein kinase Mer (Homo sapiens) (UniProt Q12866).
T2 sequence (whole entry): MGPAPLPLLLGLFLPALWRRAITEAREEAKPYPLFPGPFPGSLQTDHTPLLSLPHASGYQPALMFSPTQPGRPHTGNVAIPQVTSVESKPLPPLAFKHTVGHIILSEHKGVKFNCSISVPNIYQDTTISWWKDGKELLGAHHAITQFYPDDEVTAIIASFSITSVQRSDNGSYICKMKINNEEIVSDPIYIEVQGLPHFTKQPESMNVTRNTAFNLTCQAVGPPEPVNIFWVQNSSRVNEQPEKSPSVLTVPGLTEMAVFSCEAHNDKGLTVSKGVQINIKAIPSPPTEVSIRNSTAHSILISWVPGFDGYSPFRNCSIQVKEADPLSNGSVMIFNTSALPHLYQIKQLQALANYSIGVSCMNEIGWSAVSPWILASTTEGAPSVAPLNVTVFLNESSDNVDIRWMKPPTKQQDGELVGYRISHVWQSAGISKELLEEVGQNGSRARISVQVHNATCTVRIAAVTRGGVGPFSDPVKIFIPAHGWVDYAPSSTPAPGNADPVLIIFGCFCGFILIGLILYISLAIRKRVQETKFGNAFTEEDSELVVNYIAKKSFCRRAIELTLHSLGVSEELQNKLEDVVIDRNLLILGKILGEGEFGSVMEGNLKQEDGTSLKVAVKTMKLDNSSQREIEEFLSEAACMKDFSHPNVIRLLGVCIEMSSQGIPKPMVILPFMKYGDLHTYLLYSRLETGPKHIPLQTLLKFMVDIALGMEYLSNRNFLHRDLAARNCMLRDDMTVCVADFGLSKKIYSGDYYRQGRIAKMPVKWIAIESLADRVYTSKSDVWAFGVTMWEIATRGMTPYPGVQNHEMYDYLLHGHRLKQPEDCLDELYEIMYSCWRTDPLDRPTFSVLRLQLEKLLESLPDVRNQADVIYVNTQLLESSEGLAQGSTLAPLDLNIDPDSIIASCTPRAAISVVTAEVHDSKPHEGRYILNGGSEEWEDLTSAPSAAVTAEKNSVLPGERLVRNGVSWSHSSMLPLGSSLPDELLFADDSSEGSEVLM
Particulars: at 10 µM.

The target of experiment [3] is T3, Serine/threonine-protein kinase TBK1 (Homo sapiens) (UniProt Q9UHD2).
T3 sequence (whole entry): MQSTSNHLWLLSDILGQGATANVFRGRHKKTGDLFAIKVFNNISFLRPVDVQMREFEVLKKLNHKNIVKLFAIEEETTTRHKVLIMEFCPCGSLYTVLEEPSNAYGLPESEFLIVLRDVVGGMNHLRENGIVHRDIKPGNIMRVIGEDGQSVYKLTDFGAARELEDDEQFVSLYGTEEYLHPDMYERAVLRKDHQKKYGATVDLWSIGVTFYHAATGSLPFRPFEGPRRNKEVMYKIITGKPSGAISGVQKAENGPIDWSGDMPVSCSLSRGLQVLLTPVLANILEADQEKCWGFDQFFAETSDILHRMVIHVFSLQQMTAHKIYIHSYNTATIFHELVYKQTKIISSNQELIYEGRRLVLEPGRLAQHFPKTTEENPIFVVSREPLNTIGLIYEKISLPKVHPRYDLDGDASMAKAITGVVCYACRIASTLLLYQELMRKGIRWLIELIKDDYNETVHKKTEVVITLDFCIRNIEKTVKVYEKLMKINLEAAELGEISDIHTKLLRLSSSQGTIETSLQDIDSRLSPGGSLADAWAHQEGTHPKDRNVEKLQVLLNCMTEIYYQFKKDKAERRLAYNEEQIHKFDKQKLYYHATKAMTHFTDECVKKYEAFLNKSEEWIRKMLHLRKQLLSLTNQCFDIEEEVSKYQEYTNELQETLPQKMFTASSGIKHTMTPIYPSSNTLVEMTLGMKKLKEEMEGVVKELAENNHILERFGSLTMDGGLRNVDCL
The settings on record: at 1 µM.

As to `CCc1nn2ncccc2c1-c1ccnc(NC2CC2)n1`, the inhibition – broadly, the relative decrease from the control value, in per cent – in experiment [1] was -3% and -4%; in experiment [2] it was -4%; in experiment [3], 0% and -2%.
Take `CN1CCN(CCCNc2nc3ccc(Oc4ccc(NC(=O)Nc5cc(C(F)(F)F)ccc5F)cc4)cc3[nH]2)CC1`: the inhibition in experiment [1] was -5%; in experiment [2], -1%; in experiment [3], 0%.
As to `COc1ccc2ncnc(Nc3ccc(OCc4ccccc4)cc3)c2c1`, the inhibition in experiment [1] was -1% and 4%; in experiment [2], -4%; in experiment [3] it was 1% and -2%.
As to `COc1cc2ncn(-c3cc(OCCc4ccccc4)c(C(N)=O)s3)c2cc1OC`, the inhibition in experiment [1] is 8% and 3%; in experiment [2], 51%; in experiment [3], 65% and 61%.
Take `COc1cccc(COc2cc(-n3cnc4ccccc43)sc2C(N)=O)c1`: the inhibition in experiment [1] was -5% and -4%; in experiment [2], 1%; in experiment [3] it was 2% and 0%.
For `COc1cccc(-n2ncc3c(N/N=C/c4ccc(C(=O)NCCN(C)C)cc4)ncnc32)c1`, the inhibition in experiment [1] is -5% and -6%; in experiment [2], 49%; in experiment [3] it was 28% and 31%.
On to `O=C1Nc2ccc(I)cc2C1=Cc1cc(Br)c(O)c(Br)c1`, for which the inhibition in experiment [1] was 0%; in experiment [2], -2%; in experiment [3] it was 3%.
`CN(C)c1ccc2c(c1)/C(=C/Nc1ccc(S(N)(=O)=O)cc1)C(=O)N2`: the inhibition in experiment [1] was -3%; in experiment [2], 2%; in experiment [3], 76% and 74%.
For the compound `CCN(CC)Cc1ccc(Nc2nccc(-c3cnn4ncccc34)n2)cc1`, the inhibition in experiment [1] was -9% and -7%; in experiment [2], 5%; in experiment [3] it was 10% and 14%.
As for `CNC(=O)Oc1cc(C)c(/C=C/c2cncc(C(=O)NC)c2)c(C)c1`, the inhibition was 1% and -3% in experiment [1]; 48% in experiment [2]; -1% in experiment [3].
For `Cc1ccc2c(-c3ccnc(Nc4ccc5c(c4)OCCO5)n3)c(-c3ccc(C(F)(F)F)cc3)nn2n1`, the inhibition in experiment [1] is -1% and -5%; in experiment [2], -5%; in experiment [3], -5% and 1%.
Consider `CS(=O)(=O)CCNCc1nc(-c2ccc3ncnc(Nc4ccc(F)c(Cl)c4)c3c2)cs1`, for which the inhibition is -2% and -3% in experiment [1]; -6% in experiment [2]; 1% and -2% in experiment [3].
Consider `Fc1ccc(-c2ncn(C3CCNCC3)c2-c2ccnc(Oc3ccc(F)c(F)c3)n2)cc1`, for which the inhibition was -3% in experiment [1]; 67% in experiment [2]; 2% and 0% in experiment [3].
As to `N#Cc1ccc(Oc2nccc(-c3c(-c4ccc(F)cc4)ncn3C3CCNCC3)n2)cc1`, the inhibition in experiment [1] was -2% and -1%; in experiment [2] it was -1%; in experiment [3], 8% and 3%.
`O=C(O[C@H]1CN[C@H](C#Cc2cc3ncnc(Nc4ccc5c(ccn5Cc5cc(F)ccc5F)c4)c3s2)C1)N1CCOCC1`: the inhibition is 1% and 0% in experiment [1]; 100% in experiment [2]; 11% and 9% in experiment [3].
`CC1=C(C(=O)Nc2ccc3[nH]ncc3c2)C(c2ccc(F)cc2)NC(=O)N1` (stereo unspecified): the inhibition in experiment [1] was 4% and -2%; in experiment [2], -2%; in experiment [3] it was -2% and 0%.
Regarding `COc1ccc2cc(-c3c(-c4ccncc4)nc(-c4ccc(S(C)(=O)=O)cc4C)n3C)ccc2c1`, the inhibition in experiment [1] was -2%; in experiment [2], 0%; in experiment [3], -4% and -1%.
For the compound `NS(=O)(=O)c1cccc(-c2cc3ccncc3cc2OCc2ccccc2)c1`, the inhibition in experiment [1] was -4% and 2%; in experiment [2] it was 74%; in experiment [3] it was -7% and -1%.
Take `CS(=O)(=O)CCNCc1coc(-c2ccc3ncnc(Nc4ccc(OCc5ccccc5)cc4)c3c2)c1`: the inhibition is 0% and -1% in experiment [1]; 84% in experiment [2]; -1% in experiment [3].
For the compound `O=C1Nc2ccccc2/C1=C1\CCc2cc(O)ccc21`, the inhibition in experiment [1] is -3% and -4%; in experiment [2] it was 7%; in experiment [3] it was 25% and 30%.
In the case of `O=C1NC(=O)C(c2ccccc2Cl)=C1Nc1cccc(O)c1`, the inhibition was -6% and -2% in experiment [1]; 18% in experiment [2]; 9% and 7% in experiment [3].
`Cc1cc(O)cc(C)c1/C=C/c1cncc(C(N)=O)c1`: the inhibition in experiment [1] is -5% and -4%; in experiment [2] it was -6%; in experiment [3] it was -3% and -6%.
As to `CCCN1CCCC(c2ccc(Nc3nc(Nc4cc(F)ccc4C(N)=O)c4cc[nH]c4n3)c(OC)c2)C1` (stereo unspecified), the inhibition was -1% and 1% in experiment [1]; 5% in experiment [2]; 9% and 11% in experiment [3].
Take `CCN(CC)S(=O)(=O)c1ccc(OC)c(Nc2ncc(-c3ccccc3)o2)c1`: the inhibition in experiment [1] was -1% and 2%; in experiment [2], 13%; in experiment [3], -2% and 2%.
As for `Cc1cc(O)cc(C)c1/C=C/c1cncc(-c2nn[nH]n2)c1`, the inhibition in experiment [1] was -4% and -5%; in experiment [2], -2%; in experiment [3], 3%.
Regarding `CC1=C(C(=O)Nc2cc(Cl)c3[nH]ncc3c2)C(c2ccc(C(F)(F)F)cc2)CC(=O)N1` (stereo unspecified), the inhibition in experiment [1] was -7% and 0%; in experiment [2], 18%; in experiment [3], -2% and 0%.
Take `C[C@@H](Oc1cc(-n2cnc3ccc(OC[C@@H](O)CO)cc32)sc1C(N)=O)c1ccccc1Cl`: the inhibition in experiment [1] is 1% and 4%; in experiment [2], -1%; in experiment [3], 4% and 1%.
For `COc1cccc(-n2ncc3c(N/N=C/c4ccncc4)ncnc32)c1`, the inhibition in experiment [1] was -2%; in experiment [2], 84%; in experiment [3], 13% and 14%.
For `Cc1ccc(NC(=O)c2ccoc2)cc1-c1ccc(C(=O)NCC2CC2)cc1`, the inhibition in experiment [1] is -5%; in experiment [2] it was -4%; in experiment [3], 1% and 2%.
As to `CCNC(=O)O[C@H]1CN[C@H](C#Cc2cc3ncnc(Nc4ccc(OCc5cccc(F)c5)c(Cl)c4)c3s2)C1`, the inhibition was -5% and -3% in experiment [1]; 2% in experiment [2]; 0% and 3% in experiment [3].
With `CCOc1nccc2c1nc(-c1nonc1N)n2CC`, the inhibition in experiment [1] was -2% and -3%; in experiment [2], -3%; in experiment [3], -2% and 0%.
As to `N#Cc1c(NC(=O)c2ccccc2F)sc2c1CCCC2`, the inhibition is 1% and 0% in experiment [1]; -6% in experiment [2]; 0% and 2% in experiment [3].

These data come from ChEMBL document CHEMBL2007661, “Compounds: GSK PKIS; Assays: UNC Frye lab” (2012).
